This assay has as its system antibody R674. Put plainly: RIA: displacement of tritium labeled Compound A' or B' from polyclonal rabbit antiserum R674. It is filed as binding, New Zealand white rabbits. The note with it: up to 10 μM (the highest concentration tested). The protocol: Antibodies for the reactivation product of formula II were produced by the methods described in Basic methodology of Vituakaitis, Meth. Enzymol. 73: 46-52 (1981). Specifically, New Zealand white rabbits were immunized with Compound C (the para succinyl aminomethyl derivative of compound B'), coupled to thyroglobulin. See Scheme 3. The initial immunizations employed 1 mg of the immunogen conjugate per ml saline homogenized with 1 ml of Freund's complete adjuvant. Rabbits received a total of 0.4 ml divided over 2 intramuscular sites. Animals were boosted 30 days later receiving 0.5 mg immunogen per ml saline homogenized with 1 ml Freund's Incomplete adjuvant. […]
Antibody titer, antibody sensitivity, antibody specificity and the presence of and concentration of reactivation product in body fluids were determined by a radioimmunoassay (RIA). […]
Non-antibody-bound radioactive isotope was removed from the reaction mixture by it's absorption onto dextran-coated activated charcoal. […] The supernatant fluid was decanted into 9 ml of AQUASOL-2 scintillation fluid and radioactivity counted in a beta-counter. […] Percent specific binding was determined by subtracting the value for non-specific binding from the value of total antiserum binding and then dividing by the total radioactivity added.
Sensitivity of the antisera R674 (2nd bleed) was determined in the above RIA. […]

Turning to `NC(N)=O` [Urea, urea], the “effect in RIA (displacement)” value is given as “without affect”.

With `N=C(N)NCCC[C@H](N)C(=O)O` [arginine], the “effect in RIA (displacement)” value is “without affect”.

These data come from patent US5229267A, “Assay for evaluating inhibition of PMN elastase by N-substituted azetidinones” (Merck & Co., Inc., priority 1991, dated 1993).
